# Test results taken from ChEMBL document CHEMBL5465560, “Selectivity Literature for EUbOPEN Chemogenomic Library” (2024).
# Assays:
# [1] = target: T1, Peripheral plasma membrane protein CASK (Homo sapiens) (UniProt O14936); experiment: Selectivity interaction (Kinase panel (DSF assay)) EUB0001559a CASK
# T1 sequence (whole entry): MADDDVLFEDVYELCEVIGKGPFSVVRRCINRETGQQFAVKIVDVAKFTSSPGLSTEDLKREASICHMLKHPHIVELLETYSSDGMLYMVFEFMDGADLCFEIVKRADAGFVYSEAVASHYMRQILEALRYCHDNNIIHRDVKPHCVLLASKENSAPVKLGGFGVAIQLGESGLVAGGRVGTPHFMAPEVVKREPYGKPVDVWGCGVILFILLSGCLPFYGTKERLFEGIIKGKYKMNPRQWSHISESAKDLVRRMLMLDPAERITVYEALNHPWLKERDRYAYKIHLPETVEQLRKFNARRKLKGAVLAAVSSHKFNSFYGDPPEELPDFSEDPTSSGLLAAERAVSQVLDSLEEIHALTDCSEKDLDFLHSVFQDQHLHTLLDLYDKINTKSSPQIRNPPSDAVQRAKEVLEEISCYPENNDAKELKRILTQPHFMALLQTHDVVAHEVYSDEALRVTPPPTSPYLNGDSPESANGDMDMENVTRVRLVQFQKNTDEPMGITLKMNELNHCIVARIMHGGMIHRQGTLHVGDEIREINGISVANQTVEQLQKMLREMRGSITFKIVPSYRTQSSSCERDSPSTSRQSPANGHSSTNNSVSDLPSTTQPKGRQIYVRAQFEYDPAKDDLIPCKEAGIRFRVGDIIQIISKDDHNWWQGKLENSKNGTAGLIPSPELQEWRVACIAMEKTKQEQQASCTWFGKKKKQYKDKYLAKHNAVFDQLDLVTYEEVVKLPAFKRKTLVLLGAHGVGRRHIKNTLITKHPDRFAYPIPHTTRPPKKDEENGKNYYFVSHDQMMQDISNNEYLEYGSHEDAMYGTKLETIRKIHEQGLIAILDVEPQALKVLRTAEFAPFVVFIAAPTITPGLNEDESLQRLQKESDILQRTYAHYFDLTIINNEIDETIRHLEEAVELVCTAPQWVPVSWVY
# [2] = target: Fibroblast growth factor receptor 3 (Homo sapiens, UniProt P22607); experiment: Selectivity interaction (Kinase panel (DSF assay)) EUB0001559a FGFR3
# [3] = target: High affinity nerve growth factor receptor (Homo sapiens, UniProt P04629); experiment: Selectivity interaction (KinomeScan (DiscoverX)) EUB0000695a NTRK1; settings: at 100 nM
# [4] = target: Dual specificity mitogen-activated protein kinase kinase 1 (Homo sapiens, UniProt Q02750); experiment: Selectivity interaction (KinomeScan (DiscoverX)) EUB0000695a MAP2K1; settings: at 100 nM
# [5] = target: T2, RNA 5'-monophosphate methyltransferase (Homo sapiens) (UniProt Q7Z5W3); experiment: Selectivity interaction (Methyltransferase screen (radiometric assays, panel of 8 PRMTs, 21 protein lysine methyltransferases, 3 DNA methyltransferases, and one RNA methyltransferase)) EUB0000272b BCDIN3D
# T2 sequence (whole entry): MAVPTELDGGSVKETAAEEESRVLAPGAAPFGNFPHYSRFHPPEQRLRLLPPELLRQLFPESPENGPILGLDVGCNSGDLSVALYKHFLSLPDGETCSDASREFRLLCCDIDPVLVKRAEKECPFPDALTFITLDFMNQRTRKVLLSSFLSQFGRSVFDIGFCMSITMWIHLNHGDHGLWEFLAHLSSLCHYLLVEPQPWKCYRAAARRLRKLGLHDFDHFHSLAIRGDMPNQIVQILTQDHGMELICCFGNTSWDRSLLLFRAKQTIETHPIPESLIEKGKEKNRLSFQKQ
# [6] = target: Sodium channel protein type 2 subunit alpha (Homo sapiens) (UniProt Q99250); experiment: Selectivity interaction (Eurofins CEREP Diversity Profile (receptors and ion channels)) EUB0000279b SCN2A; settings: at 10 µM
# [7] = target: Serine/threonine-protein kinase SIK2 (Homo sapiens) (UniProt Q9H0K1); experiment: Selectivity interaction (KinomeScan (DiscoverX)) EUB0001619a SIK2; settings: at 1 µM
# [8] = target: Serine/threonine-protein kinase 38-like (Homo sapiens) (UniProt Q9Y2H1); experiment: Selectivity interaction (KinomeScan (DiscoverX)) EUB0000607a STK38L; settings: at 10 µM
# [9] = target: T3, Protein kinase C iota type (Homo sapiens) (UniProt P41743); experiment: Selectivity interaction (Kinase panel (Invitrogen)) EUB0000639a PRKCI; settings: at 200 nM
# T3 sequence (whole entry): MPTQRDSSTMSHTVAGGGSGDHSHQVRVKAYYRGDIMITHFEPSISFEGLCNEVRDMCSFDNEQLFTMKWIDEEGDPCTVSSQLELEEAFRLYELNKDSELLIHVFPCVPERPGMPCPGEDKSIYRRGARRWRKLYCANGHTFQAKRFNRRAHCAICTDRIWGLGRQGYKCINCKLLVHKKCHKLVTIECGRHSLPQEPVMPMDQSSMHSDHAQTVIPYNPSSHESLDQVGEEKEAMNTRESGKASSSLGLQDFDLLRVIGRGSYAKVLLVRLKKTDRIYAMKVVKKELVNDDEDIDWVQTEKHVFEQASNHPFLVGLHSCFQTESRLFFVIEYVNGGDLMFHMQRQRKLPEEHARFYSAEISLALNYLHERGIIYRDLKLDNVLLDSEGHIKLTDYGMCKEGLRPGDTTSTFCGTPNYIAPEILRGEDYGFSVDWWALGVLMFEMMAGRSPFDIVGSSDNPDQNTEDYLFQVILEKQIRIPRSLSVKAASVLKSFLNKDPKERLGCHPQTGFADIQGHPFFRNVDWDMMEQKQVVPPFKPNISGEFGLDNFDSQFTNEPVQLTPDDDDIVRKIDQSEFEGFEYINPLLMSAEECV
# [10] = target: T4, Serine/threonine-protein kinase STK11 (Homo sapiens) (UniProt Q15831); settings: at 10 µM
# T4 sequence (whole entry): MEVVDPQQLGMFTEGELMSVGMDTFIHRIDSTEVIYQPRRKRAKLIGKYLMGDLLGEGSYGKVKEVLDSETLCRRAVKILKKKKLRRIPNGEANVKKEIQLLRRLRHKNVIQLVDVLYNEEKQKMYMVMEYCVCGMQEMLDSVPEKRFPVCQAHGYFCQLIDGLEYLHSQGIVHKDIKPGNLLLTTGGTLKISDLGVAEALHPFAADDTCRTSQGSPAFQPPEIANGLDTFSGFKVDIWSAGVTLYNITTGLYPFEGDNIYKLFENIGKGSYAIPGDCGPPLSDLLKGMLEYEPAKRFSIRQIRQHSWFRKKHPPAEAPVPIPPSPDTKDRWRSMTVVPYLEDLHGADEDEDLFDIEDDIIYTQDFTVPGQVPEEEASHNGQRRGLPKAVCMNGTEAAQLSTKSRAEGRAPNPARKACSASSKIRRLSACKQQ
# Chain of Serine/threonine-protein kinase 38-like (Homo sapiens) (Q9Y2H1 2-464 limits assumed): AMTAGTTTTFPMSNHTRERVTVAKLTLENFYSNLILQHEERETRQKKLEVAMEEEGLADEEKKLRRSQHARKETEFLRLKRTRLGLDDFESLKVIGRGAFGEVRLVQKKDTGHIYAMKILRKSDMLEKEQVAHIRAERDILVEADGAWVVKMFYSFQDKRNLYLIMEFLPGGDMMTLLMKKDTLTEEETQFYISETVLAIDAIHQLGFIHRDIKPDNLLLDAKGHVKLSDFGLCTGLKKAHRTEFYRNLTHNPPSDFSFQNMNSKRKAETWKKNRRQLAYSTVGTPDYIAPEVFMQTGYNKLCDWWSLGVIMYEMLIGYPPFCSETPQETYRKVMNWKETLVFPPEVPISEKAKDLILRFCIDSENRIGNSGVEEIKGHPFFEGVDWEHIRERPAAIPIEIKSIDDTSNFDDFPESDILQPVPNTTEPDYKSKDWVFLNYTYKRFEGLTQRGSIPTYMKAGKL
# Chain of High affinity nerve growth factor receptor (P04629 33-796 limits assumed): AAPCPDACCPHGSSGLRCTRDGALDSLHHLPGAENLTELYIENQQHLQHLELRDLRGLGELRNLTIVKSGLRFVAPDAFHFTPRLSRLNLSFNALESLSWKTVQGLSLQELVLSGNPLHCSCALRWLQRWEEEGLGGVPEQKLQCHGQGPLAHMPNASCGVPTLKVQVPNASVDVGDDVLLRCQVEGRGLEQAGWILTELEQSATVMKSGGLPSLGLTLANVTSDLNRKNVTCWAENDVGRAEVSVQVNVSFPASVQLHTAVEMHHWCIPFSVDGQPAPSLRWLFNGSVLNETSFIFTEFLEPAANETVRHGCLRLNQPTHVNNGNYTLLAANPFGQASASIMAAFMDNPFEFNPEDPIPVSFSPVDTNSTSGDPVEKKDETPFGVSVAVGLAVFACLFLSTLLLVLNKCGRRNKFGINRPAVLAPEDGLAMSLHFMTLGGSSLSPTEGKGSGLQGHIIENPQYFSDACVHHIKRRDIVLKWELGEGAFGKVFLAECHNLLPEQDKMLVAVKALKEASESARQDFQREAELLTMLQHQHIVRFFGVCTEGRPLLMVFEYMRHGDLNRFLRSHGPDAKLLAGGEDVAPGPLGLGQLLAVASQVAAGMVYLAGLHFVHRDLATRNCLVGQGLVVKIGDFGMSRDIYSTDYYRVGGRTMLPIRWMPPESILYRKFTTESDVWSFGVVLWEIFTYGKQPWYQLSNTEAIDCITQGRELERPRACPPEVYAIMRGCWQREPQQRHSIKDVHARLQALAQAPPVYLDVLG
# Chain of Sodium channel protein type 2 subunit alpha (Homo sapiens) (Q99250 whole entry, looked up): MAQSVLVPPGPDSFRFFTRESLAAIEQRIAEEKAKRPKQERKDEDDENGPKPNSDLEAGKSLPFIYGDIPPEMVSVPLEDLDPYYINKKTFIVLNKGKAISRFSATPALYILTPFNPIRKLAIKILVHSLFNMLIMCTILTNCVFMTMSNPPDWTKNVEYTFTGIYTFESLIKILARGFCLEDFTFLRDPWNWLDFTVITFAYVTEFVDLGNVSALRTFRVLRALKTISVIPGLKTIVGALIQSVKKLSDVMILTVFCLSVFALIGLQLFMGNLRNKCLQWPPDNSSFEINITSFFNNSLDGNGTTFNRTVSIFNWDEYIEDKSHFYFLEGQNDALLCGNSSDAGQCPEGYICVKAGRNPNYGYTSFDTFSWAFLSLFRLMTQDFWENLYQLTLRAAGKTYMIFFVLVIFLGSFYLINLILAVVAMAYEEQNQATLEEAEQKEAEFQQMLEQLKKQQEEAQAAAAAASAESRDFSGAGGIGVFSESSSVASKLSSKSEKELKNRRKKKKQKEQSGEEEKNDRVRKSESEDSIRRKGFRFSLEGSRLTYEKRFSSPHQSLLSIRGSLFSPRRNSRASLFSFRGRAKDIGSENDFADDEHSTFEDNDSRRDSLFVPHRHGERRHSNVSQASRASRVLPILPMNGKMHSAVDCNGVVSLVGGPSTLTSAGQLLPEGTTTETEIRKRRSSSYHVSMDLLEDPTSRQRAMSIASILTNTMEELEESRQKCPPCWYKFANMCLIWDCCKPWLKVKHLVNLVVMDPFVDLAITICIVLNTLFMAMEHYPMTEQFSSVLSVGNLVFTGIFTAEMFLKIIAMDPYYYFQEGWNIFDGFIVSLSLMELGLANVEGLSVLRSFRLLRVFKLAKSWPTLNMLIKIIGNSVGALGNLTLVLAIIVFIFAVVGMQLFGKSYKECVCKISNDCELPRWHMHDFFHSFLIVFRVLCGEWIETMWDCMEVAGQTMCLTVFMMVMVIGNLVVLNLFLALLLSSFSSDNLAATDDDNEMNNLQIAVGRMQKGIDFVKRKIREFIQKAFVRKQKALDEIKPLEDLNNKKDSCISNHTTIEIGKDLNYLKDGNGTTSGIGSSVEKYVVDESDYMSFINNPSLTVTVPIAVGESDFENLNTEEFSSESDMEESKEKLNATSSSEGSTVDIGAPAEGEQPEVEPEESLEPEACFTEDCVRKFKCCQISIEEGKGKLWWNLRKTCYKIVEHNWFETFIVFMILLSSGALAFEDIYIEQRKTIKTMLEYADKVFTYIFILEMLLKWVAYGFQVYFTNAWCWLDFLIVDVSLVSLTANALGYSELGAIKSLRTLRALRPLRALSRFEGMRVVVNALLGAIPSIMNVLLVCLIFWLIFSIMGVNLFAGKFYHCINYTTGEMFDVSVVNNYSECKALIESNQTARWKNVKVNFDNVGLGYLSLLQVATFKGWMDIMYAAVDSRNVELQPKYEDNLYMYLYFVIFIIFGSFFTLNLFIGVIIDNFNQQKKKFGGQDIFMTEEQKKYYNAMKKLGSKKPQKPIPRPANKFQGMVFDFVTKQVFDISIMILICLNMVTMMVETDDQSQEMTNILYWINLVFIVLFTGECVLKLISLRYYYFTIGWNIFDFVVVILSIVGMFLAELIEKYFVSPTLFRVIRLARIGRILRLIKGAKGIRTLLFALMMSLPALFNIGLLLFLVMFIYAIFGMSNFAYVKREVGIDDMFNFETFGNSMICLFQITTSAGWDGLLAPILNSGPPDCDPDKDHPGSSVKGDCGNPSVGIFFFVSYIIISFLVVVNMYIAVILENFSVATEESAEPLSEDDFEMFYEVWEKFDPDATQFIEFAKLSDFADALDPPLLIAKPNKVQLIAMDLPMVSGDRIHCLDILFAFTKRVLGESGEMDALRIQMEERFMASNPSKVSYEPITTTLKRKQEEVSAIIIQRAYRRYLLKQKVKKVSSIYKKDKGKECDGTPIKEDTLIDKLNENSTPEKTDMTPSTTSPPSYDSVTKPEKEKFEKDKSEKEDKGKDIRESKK
# Chain of Fibroblast growth factor receptor 3 (P22607 23-806 limits assumed): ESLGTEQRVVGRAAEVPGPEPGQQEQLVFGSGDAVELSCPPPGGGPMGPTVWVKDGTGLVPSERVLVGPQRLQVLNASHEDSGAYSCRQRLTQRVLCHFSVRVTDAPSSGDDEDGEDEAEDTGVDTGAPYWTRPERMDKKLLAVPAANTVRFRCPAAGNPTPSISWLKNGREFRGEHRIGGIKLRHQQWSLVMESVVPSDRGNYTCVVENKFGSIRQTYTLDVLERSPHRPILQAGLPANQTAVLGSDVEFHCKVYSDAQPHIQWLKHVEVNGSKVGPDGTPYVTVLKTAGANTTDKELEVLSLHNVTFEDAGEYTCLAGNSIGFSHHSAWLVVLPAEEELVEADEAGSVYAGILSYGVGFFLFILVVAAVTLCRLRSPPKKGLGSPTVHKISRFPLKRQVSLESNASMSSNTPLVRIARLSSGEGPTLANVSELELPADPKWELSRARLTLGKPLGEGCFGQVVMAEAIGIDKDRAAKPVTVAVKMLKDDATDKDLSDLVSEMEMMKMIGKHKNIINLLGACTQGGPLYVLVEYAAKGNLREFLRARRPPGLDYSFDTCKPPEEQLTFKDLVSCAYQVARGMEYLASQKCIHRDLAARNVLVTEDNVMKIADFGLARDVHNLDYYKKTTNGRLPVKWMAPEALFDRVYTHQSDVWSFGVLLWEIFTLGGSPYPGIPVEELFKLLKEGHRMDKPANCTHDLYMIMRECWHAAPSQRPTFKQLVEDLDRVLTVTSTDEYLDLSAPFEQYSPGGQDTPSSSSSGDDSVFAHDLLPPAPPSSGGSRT
# Chain of Serine/threonine-protein kinase SIK2 (Homo sapiens) (Q9H0K1 whole entry, looked up): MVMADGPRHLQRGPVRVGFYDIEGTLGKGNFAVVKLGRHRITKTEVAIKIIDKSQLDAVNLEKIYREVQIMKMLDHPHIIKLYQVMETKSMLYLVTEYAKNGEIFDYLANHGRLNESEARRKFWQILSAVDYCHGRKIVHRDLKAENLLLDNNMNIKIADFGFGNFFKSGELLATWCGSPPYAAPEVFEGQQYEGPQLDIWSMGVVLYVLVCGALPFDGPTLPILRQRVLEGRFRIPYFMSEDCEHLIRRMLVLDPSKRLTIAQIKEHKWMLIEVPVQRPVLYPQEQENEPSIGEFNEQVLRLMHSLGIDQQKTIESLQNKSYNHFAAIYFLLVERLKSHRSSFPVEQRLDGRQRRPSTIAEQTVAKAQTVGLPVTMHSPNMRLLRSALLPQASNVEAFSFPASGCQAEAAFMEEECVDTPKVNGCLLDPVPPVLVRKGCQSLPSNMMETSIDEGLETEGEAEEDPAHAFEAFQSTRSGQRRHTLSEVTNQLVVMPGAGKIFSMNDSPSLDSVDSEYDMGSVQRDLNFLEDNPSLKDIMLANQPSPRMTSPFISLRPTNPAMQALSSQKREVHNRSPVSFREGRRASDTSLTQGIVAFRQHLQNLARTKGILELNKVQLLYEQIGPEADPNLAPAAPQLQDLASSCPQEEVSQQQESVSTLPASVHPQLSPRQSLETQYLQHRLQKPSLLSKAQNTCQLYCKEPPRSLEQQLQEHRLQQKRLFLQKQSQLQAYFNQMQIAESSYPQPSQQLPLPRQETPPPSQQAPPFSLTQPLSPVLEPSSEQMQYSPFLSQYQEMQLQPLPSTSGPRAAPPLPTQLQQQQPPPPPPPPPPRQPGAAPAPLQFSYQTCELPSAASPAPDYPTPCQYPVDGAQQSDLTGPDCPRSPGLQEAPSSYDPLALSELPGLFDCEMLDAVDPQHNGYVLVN
smiles,measurement,setting,value
CN(C(=O)c1cnn2cccnc12)c1cc2c(cc1N1CCOCC1)C(=O)N(C[C@@H](F)C(C)(C)O)C2,dTM,[1],0 K
same,dTM,[2],-0.3 K
Cc1cc(F)c(C(=O)Nc2cccc(-c3nncn3C(C)C)n2)cc1-n1cnc(C2CC2)c1,% of control,[3],79%
same,% of control,[4],100%
Cc1cc(C)cc([C@H]2c3cc(C)ccc3NC(=O)CN2C(=O)c2ccc(Br)s2)c1,% of activity,[5]; at 1 µM,96%
same,% of activity,[5]; at 10 µM,99.3%
CC(=O)c1cc(-c2ccccc2OCC2CC2)c2ncccn12,% of control,[6],100%
N#Cc1cccc(-c2c[nH]c3ncnc(N4CCOCC4)c23)c1,% of control,[7],32%
CNC(=O)Nc1ccc(-c2nc(N3CC4CCC(C3)O4)c3cnn(C4CCC5(CC4)OCCO5)c3n2)cc1,% of control,[8],100%
CC[C@@H]1[C@H](F)C(=O)N[C@@H]1COc1nccc2cc(C(N)=O)c(OC)cc12 [ZIMLOVISERTIB],% of inhibition,[9],5.1%
CCN(CC)CCCCNc1ncc2cc(-c3cc(OC)cc(OC)c3)c(NC(=O)NC(C)(C)C)nc2n1,% of control,[10],100%
